In ChEMBL document CHEMBL1144449, “Design, synthesis, and evaluation of orally active 4-(2,4-difluoro-5-(methoxycarbamoyl)phenylamino)pyrrolo[2,1-f][1,2,4]triazines as dual vascular endothelial growth factor receptor-2 and fibroblast growth factor receptor-1 inhibitors” (J Med Chem, 2005):

Experiments:
[1] = target: Insulin-like growth factor 1 receptor (Homo sapiens, UniProt P08069); experiment: Inhibition of human insulin-like growth factor I receptor
[2] = target: Protein kinase C alpha type (Homo sapiens, UniProt P17252); experiment: Inhibition of human protein kinase C alpha
[3] = target: Platelet-derived growth factor receptor beta (Homo sapiens, UniProt P09619); experiment: Inhibition of human platelet-derived growth factor receptor beta
[4] = target: Tyrosine-protein kinase Lck (Homo sapiens, UniProt P06239); experiment: Inhibition of human p56 lck tyrosine kinase
Chain of Tyrosine-protein kinase Lck (P06239 whole entry): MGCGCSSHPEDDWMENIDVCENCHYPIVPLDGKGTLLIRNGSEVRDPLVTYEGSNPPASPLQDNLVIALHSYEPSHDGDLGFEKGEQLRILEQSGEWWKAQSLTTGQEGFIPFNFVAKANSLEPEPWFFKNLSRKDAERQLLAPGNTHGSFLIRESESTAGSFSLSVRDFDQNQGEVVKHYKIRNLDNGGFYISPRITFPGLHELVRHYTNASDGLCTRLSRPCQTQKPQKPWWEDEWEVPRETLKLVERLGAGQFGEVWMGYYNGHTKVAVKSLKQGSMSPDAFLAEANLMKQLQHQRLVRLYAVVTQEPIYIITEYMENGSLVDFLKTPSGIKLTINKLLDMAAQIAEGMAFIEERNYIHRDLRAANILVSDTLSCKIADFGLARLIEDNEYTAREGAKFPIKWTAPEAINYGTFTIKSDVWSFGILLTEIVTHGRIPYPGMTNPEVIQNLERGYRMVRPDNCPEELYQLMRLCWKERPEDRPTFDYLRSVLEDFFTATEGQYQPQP

[5] = target: Cyclin-dependent kinase 2 (Homo sapiens, UniProt P24941); experiment: Inhibition of human cyclin-dependent kinase 2
[6] = Plasma level after 1 hour of oral administration of 50 mg/kg compound in mouse; type: ADME, organism-based; set-up: dose 50 mg/kg, route oral; settings: read-out: Plasma level
[7] = target: Receptor tyrosine-protein kinase erbB-2 (Homo sapiens, UniProt P04626); experiment: Inhibition against human HER2 kinase
Chain of Receptor tyrosine-protein kinase erbB-2 (P04626 whole entry): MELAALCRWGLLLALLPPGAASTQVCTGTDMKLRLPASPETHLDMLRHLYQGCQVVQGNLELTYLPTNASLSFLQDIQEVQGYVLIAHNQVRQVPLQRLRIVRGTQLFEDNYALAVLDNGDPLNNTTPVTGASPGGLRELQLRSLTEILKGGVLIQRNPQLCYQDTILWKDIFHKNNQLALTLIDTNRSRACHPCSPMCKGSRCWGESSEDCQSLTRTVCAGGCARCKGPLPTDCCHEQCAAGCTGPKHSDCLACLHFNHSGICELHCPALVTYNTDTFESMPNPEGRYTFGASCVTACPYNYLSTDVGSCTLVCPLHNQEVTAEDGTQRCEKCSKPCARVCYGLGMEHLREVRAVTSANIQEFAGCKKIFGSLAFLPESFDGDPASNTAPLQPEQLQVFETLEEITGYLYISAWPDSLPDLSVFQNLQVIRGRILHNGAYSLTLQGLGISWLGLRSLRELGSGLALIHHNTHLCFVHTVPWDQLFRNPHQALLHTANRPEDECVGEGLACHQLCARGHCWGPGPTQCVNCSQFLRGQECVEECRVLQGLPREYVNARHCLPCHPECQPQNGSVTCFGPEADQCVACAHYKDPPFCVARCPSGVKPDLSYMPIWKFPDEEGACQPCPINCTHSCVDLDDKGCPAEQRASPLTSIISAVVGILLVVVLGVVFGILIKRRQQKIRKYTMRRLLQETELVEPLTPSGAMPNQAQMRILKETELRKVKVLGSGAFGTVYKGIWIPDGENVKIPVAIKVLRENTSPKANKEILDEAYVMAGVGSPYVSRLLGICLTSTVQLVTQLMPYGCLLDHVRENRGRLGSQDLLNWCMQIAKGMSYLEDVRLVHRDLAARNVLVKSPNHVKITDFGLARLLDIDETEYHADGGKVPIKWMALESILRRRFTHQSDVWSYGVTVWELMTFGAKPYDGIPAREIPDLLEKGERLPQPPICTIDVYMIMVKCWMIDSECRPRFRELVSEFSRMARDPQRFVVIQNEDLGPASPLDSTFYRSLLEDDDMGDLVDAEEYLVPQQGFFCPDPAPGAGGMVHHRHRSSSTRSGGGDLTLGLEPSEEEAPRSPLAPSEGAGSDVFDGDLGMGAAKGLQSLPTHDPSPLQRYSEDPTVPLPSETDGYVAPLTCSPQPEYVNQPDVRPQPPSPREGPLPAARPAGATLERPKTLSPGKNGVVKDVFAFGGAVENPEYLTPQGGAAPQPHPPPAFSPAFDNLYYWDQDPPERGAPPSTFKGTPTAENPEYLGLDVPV

[8] = Plasma level after 4 hours of oral administration of 50 mg/kg compound in mouse; type: ADME, organism-based; set-up: dose 50 mg/kg, route oral; settings: read-out: Plasma level
[9] = target: Fibroblast growth factor receptor 1 (Homo sapiens, UniProt P11362); experiment: Inhibition of human fibroblast growth factor receptor 1
Chain of Fibroblast growth factor receptor 1 (P11362 whole entry): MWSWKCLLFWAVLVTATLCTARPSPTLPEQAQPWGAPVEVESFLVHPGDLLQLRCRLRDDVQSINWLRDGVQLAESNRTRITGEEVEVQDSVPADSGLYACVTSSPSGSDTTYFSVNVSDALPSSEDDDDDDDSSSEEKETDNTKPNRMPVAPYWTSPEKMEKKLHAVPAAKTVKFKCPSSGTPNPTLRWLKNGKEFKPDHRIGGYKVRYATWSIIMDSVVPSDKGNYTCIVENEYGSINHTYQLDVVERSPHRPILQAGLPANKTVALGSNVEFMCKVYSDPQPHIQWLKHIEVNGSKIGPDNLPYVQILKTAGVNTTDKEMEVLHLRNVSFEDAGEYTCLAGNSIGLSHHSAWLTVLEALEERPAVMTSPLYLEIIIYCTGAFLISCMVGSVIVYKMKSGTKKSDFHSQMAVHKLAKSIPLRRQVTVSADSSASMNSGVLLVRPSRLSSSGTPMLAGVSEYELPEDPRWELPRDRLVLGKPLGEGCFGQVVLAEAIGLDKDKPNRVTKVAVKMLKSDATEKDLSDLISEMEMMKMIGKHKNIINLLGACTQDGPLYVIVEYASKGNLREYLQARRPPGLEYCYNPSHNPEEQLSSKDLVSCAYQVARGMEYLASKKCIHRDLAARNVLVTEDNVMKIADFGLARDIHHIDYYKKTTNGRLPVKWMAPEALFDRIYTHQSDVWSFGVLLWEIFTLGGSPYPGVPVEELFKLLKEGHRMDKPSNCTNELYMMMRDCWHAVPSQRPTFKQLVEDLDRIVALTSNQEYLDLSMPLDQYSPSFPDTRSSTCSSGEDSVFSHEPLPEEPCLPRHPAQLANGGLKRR

[10] = Half-life determined after administration of 5 mg/kg dose iv in mouse; type: ADME, organism-based; set-up: dose 5 mg/kg, route intravenous; settings: in vivo
[11] = Mean residence time determined after administration of 10 mg/kg dose po in mouse; type: ADME, organism-based; set-up: dose 10 mg/kg, route oral; settings: in vivo
[12] = target: Fibroblast growth factor receptor (Homo sapiens, UniProt P22607+P11362+P22455+P21802); experiment: Inhibition of FGF-stimulated human umbilical vein endothelial cell proliferation; type: functional, cell-based
[13] = Maximum plasma concentration determined after administration of 5 mg/kg dose iv in mouse; type: ADME, organism-based; set-up: dose 5 mg/kg, route intravenous
[14] = tested on: Mus musculus; experiment: Tumor growth inhibition of L2987 human lung carcinoma xenografts implanted subcutaneously in athymic mouse after oral administration of 100 mg/kg/day; type: functional; settings: read-out: TGI
[15] = Half-life determined after administration of 10 mg/kg dose po in mouse; type: ADME, organism-based; set-up: dose 10 mg/kg, route oral; settings: in vivo
[16] = Area under curve determined after administration of 5 mg/kg dose iv in mouse; type: ADME, organism-based; set-up: dose 5 mg/kg, route intravenous; settings: in vivo
[17] = Systemic plasma clearance determined after administration of 5 mg/kg dose iv in mouse; type: ADME, organism-based; set-up: dose 5 mg/kg, route intravenous
[18] = Maximum plasma concentration determined after administration of 10 mg/kg dose po in mouse; type: ADME, organism-based; set-up: dose 10 mg/kg, route oral
[19] = tested on: Mus musculus; experiment: Tumor growth inhibition of L2987 human lung carcinoma xenografts implanted subcutaneously in athymic mouse after oral administration of 150 mg/kg/day; type: functional; settings: read-out: TGI
[20] = Plasma level after 4 hours of oral administration of 10 mg/kg compound in mouse
[21] = tested on: Mus musculus; experiment: Tumor growth inhibition of L2987 human lung carcinoma xenografts implanted subcutaneously in athymic mouse after oral administration of 50 mg/kg/day; type: functional; settings: read-out: TGI
[22] = Mean residence time determined after administration of 5 mg/kg dose iv in mouse; type: ADME, organism-based; set-up: dose 5 mg/kg, route intravenous; settings: in vivo
[23] = Total time required to reach maximum plasma concentration after administration of 10 mg/kg dose po in mouse; type: ADME, organism-based; set-up: dose 10 mg/kg, route oral
[24] = Plasma level after 1 hour of oral administration of 10 mg/kg compound in mouse
[25] = Steady-state volume of distribution determined after administration of 5 mg/kg dose iv in mouse; type: ADME, organism-based; set-up: dose 5 mg/kg, route intravenous; settings: in vivo, read-out: Vss
[26] = Oral bioavailability determined after administration of 10 mg/kg dose po in mouse; type: ADME, organism-based; settings: in vivo
[27] = Area under curve determined after administration of 10 mg/kg dose po in mouse; type: ADME, organism-based; set-up: dose 10 mg/kg, route oral; settings: in vivo
[28] = target: Vascular endothelial growth factor receptor 2 (Homo sapiens, UniProt P35968); experiment: Inhibition of human vascular endothelial growth factor receptor 2 kinase activity
Chain of Vascular endothelial growth factor receptor 2 (P35968 whole entry): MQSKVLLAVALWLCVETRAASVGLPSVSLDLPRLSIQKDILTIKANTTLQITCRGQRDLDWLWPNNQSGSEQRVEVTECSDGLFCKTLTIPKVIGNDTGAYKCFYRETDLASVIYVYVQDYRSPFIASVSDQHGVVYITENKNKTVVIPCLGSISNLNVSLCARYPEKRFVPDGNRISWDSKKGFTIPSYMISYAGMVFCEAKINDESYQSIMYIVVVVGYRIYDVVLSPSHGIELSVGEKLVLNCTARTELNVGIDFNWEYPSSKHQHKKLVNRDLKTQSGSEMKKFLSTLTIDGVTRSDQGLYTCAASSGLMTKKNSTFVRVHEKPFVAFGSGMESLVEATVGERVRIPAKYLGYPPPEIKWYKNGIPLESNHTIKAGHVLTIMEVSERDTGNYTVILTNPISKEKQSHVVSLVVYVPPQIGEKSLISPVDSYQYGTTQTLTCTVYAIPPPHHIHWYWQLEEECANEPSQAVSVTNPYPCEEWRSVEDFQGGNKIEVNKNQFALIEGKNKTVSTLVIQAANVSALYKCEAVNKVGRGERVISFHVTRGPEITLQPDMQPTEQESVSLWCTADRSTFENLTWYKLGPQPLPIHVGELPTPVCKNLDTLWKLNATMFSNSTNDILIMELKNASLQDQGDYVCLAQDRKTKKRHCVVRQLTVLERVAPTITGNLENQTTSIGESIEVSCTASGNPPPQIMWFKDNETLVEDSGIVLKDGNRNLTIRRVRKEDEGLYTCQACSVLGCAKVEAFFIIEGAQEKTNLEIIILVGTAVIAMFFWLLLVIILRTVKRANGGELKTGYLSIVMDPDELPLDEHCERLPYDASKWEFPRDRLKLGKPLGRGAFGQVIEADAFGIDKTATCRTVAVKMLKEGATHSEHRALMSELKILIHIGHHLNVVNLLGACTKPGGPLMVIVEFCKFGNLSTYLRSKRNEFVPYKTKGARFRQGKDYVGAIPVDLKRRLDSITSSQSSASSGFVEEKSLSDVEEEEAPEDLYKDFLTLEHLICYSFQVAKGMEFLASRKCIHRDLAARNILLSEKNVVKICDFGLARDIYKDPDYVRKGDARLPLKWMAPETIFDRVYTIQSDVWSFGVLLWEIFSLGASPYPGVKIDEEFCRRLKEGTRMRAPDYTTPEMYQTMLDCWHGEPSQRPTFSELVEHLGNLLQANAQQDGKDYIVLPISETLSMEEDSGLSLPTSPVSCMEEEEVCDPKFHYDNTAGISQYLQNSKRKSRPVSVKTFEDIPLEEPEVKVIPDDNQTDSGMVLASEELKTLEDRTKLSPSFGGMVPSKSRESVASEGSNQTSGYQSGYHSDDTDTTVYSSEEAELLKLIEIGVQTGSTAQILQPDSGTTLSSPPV

[29] = target: Vascular endothelial growth factor receptor (Homo sapiens, UniProt P17948+P35916+P35968); experiment: Inhibition of VEGF-stimulated human umbilical vein endothelial cell proliferation; type: functional, cell-based

## CONC(=O)c1cc(Nc2ncnn3cc(NC(=O)OCCCS(C)(=O)=O)c(C(C)C)c23)c(F)cc1F
[1]
  IC50: > 25000 nM
[2]
  IC50: > 50000 nM
[3]
  IC50: > 2000 nM
[4]
  IC50: 5100 nM
[5]
  IC50: > 50000 nM
[6]
  concentration at 1 h: 7.9 µM
[7]
  IC50: 5300 nM
[8]
  concentration at 4 h: 13.8 µM
[9]
  IC50: 58 nM

## CONC(=O)c1cc(Nc2ncnn3cc(-c4nnc(C(F)(F)S(C)(=O)=O)o4)c(C(C)C)c23)c(F)cc1F
[10]
  half-life: 2.5 h
[11]
  MRT: 5.2 h
[12]
  IC50: 130 nM
[2]
  IC50: > 50000 nM
[13]
  Cmax: 23.7 µM
[4]
  IC50: 7800 nM
[5]
  IC50: > 50000 nM
[14]
  inhibition in vivo at 100 mg/kg/day: 87.5%
[15]
  half-life: 3.6 h
[7]
  IC50: > 25000 nM
[16]
  AUC: 97.4 µM·h
[17]
  clearance: 1.53 mL/min/kg
[18]
  Cmax: 27.7 µM
[19]
  inhibition in vivo at 150 mg/kg/day: 94.2%
[20]
  concentration at 4 h: 13.8 µM
[21]
  inhibition in vivo at 50 mg/kg/day: 63.9%
[22]
  MRT: 4.9 h
[9]
  IC50: 220 nM
[23]
  Tmax: 0.5 h
[24]
  concentration at 1 h: 26.6 µM
[25]
  Vd: 0.45 L/kg
[26]
  bioavailability: 79%
[27]
  AUC: 155 µM·h

## CONC(=O)c1cc(Nc2ncnn3cc(-c4nnc(C(C)C)o4)c(C(C)C)c23)c(F)cc1F
[12]
  IC50: 1 nM
[28]
  IC50: 22 nM
[29]
  IC50: 18 nM
[9]
  IC50: 39 nM

## CONC(=O)c1cc(Nc2ncnn3cc(NC(=O)OC4CCN(C)CC4)c(C(C)C)c23)c(F)cc1F
[28]
  IC50: 36 nM
[6]
  concentration at 1 h: 5.1 µM
[29]
  IC50: 19 nM
[8]
  concentration at 4 h: 3 µM

## CCOC(=O)c1cn2ncnc(Nc3cc(C(=O)NOC)ccc3F)c2c1C(C)C
[28]
  IC50: 34 nM

## CCOC(=O)c1cn2ncnc(Nc3ccc(C)c(C(=O)NOC)c3)c2c1C(C)C
[28]
  IC50: 120 nM

## CONC(=O)c1cc(Nc2ncnn3cc(NC(=O)OCC4CCCO4)c(C(C)C)c23)c(F)cc1F (stereo not drawn)
[1]
  IC50: > 25000 nM
[2]
  IC50: > 50000 nM
[5]
  IC50: > 50000 nM
[6]
  concentration at 1 h: 29.5 µM
[7]
  IC50: > 10000 nM
[8]
  concentration at 4 h: 2.9 µM

## CONC(=O)c1cc(Nc2ncnn3cc(-c4nnc(C)o4)c(C(C)C)c23)c(F)cc1F
[12]
  IC50: 6.5 nM
[1]
  IC50: > 25000 nM
[2]
  IC50: > 50000 nM
[3]
  IC50: > 2000 nM
[5]
  IC50: > 50000 nM
[6]
  concentration at 1 h: 132 µM
[7]
  IC50: 8000 nM
[8]
  concentration at 4 h: 37.7 µM
[9]
  IC50: 19 nM

## CONC(=O)c1cc(Nc2ncnn3cc(-c4nnc(CC5CC5)o4)c(C(C)C)c23)c(F)cc1F
[12]
  IC50: 9.2 nM
[28]
  IC50: 17 nM
[29]
  IC50: 4 nM
[9]
  IC50: 27 nM

## CCOC(=O)Nc1cn2ncnc(Nc3cc(C(=O)NOC)c(F)cc3F)c2c1C(C)C
[28]
  IC50: 66 nM
[29]
  IC50: 31 nM

## CONC(=O)c1cc(Nc2ncnn3cc(-c4n[nH]c(C)n4)c(C(C)C)c23)c(F)cc1F
[12]
  IC50: 46 nM
[28]
  IC50: 71 nM
[29]
  IC50: 50 nM
[9]
  IC50: 50 nM

## CONC(=O)c1cc(Nc2ncnn3cc(-c4nc(C)no4)c(C(C)C)c23)c(F)cc1F
[12]
  IC50: 7.6 nM
[28]
  IC50: 49 nM
[29]
  IC50: 6.8 nM
[9]
  IC50: 110 nM

## CONC(=O)c1cc(Nc2ncnn3cc(-c4nnc(CC(F)(F)F)o4)c(C(C)C)c23)c(F)cc1F
[12]
  IC50: 44 nM
[28]
  IC50: 29 nM
[29]
  IC50: 25 nM
[9]
  IC50: 68 nM

## CONC(=O)c1cc(Nc2ncnn3cc(-c4nnc(N(C)C)o4)c(C(C)C)c23)c(F)cc1F
[12]
  IC50: 7.3 nM
[28]
  IC50: 11 nM
[29]
  IC50: 6.7 nM
[9]
  IC50: 18 nM

## CCOC(=O)c1cn2ncnc(Oc3cccc(C(=O)NOC)c3)c2c1C(C)C
[28]
  IC50: 270 nM

## CCOC(=O)c1cn2ncnc(Nc3cc(C(=O)NOCC(C)C)c(F)cc3F)c2c1C(C)C
[28]
  IC50: 1200 nM

## CONC(=O)c1cc(Nc2ncnn3cc(NC(=O)OCCCN4CCCCC4)c(C(C)C)c23)c(F)cc1F
[28]
  IC50: 79 nM
[29]
  IC50: 62 nM
